As a reminder, the viability is a read-out of living cells in per cent, often relative to untreated cells.

A short description of the series: in vitro. To be noted: human, hela cells, % viability.

In the case of `CC1CCN(Cc2ccc(-c3ccc(CC(=O)NCCc4ccc(O)cc4)cn3)cc2)CC1` [CBK158384], the viability at 28.5 h, 10 µM came out at 91.9%. As for `OCCC1CCCCN1c1cncc(C2CCOC2)n1` (stereo not shown) [CBK066127], the viability at 28.5 h, 10 µM was 101%. With `COc1ccc(C2CC(c3ccccc3)=NN2c2ccc(S(N)(=O)=O)cc2)cc1OC` (stereo not shown) [CBK268193], the viability at 28.5 h, 10 µM turned out to be 107%.

Turning to `CCOc1ccc(OC(=O)c2cccc(C)c2)cc1` [CBK083575], the viability at 28.5 h, 10 µM turned out to be 101%. As to `O=C(c1ccco1)N1CCc2cc(-c3cn4c(n3)CCCC4)ccc21` [CBK282893], the viability at 28.5 h, 10 µM is 98.8%. Take `COc1ccc(CN2C(=O)CC(c3ccccc3)C2=O)cc1` (stereo not shown) [CBK002055]: the viability at 28.5 h, 10 µM was 99.4%. As for `O=C(O)C1CCCCC1C(=O)NCCc1ccccc1` (stereo not shown) [CBK261707], the viability at 28.5 h, 10 µM was determined as 94%. Take `CCCc1ccc(N(C)C(=O)c2ccc(OC(F)(F)F)cc2)cc1` [CBK161616]: the viability at 28.5 h, 10 µM is 91.4%. Consider `O=C(Nc1nnc(-c2ccc3c(c2)OCCO3)o1)c1cccc(F)c1` [CBK287402], for which the viability at 28.5 h, 10 µM was determined as 101%. On to `CCN(CC)c1ccc(/C=N/NC(=O)CC2=NNC(=O)C2)cc1` [CBK020059], for which the viability at 28.5 h, 10 µM is 91.8%. As to `O=S(=O)(/N=C(/c1ccc(Cl)cc1)N1CCOCC1)c1ccccc1` [CBK293950], the viability at 28.5 h, 10 µM was determined as 93.5%.

Take `COc1ccccc1-c1nccnc1NCc1ccc(OC(F)(F)F)cc1` [CBK036761]: the viability at 28.5 h, 10 µM was found to be 96%.

For `CN(C)c1ccccc1-c1cc(N2CCN(S(=O)(=O)c3ccc(Cl)cc3)CC2)ncn1` [CBK037039], the viability at 28.5 h, 10 µM came to 81.7%. With `O=C(O)CN1C(=O)C(=O)/C(=C(O)\C=C\c2ccccc2)C1c1ccccc1` (stereo not shown) [CBK286551] the figure was 86.8%. As for `CCCNC(=O)c1cc(C2CCCN(Cc3ccc(F)cc3)C2)no1` (stereo not shown) [CBK283387], the viability at 28.5 h, 10 µM was found to be 94%. `COc1ccccc1-c1nc(C2CCCN2C(=O)N[C@@H](C)c2ccccc2)n2ccccc12` (stereo partly shown) [CBK046625]: the viability at 28.5 h, 10 µM was 109%. With `CCCCn1c(SC(C)C(N)=O)nc2cc(C(=O)OC)ccc2c1=O` (stereo not shown) [CBK305877] the figure was 84%; with `Cc1cccc(CNCC2CCN(C(=O)OC(C)(C)C)CC2)n1` [CBK056713], 104%; with `CS(=O)(=O)Nc1ncc(-c2ccco2)cc1C(=O)NCc1nc2ccccc2[nH]1` [CBK076468], 103%. Turning to `CC1=C(C(=O)N2CCOCC2)C(c2ccc(Cl)cc2)NC(=O)N1c1ccc(C(=O)O)cc1` (stereo not shown) [CBK296999], the viability at 28.5 h, 10 µM was found to be 93.1%. On to `COc1ccc(-c2cc(C(=O)NCCc3ccncc3)cnc2-c2cccc(C)c2)cn1` [CBK037489], for which the viability at 28.5 h, 10 µM was found to be 99.1%.

As to `O=C(O)c1cc(-c2cccnc2)nc2ccc(Br)cc12` [CBK263674], the viability at 28.5 h, 10 µM is 105%. With `CC1(C)[C@H](Cc2cc(COc3ccccc3)on2)C[C@@H]1NC1CCOCC1` [CBK289694] the figure was 96.5%. Regarding `Cc1cc(C)c2c(c1)C1(C(=O)N2)C(C#N)=C(N)Oc2[nH]nc(-c3ccccc3)c21` (stereo not shown) [CBK267367], the viability at 28.5 h, 10 µM stood at 100%. Consider `O=C(Cc1ccc(Cl)cc1)NCCc1c[nH]c2ccccc12` [CBK269787], for which the viability at 28.5 h, 10 µM is 87%. In the case of `CCOC(=O)c1cnc2ccccc2c1NCCN1CCOCC1` [CBK304328] it was 101%; in that of `C[C@@H](NC(=O)N(Cc1ccc([N+](=O)[O-])cc1)CC(C)(C)N)c1cccc2ccccc12` [CBK004921], 102%; in that of `CC(=O)N1CCCC(c2[nH]c3cccnc3c2CN(C)C)C1` (stereo not shown) [CBK283469], 89.1%. Take `CC(NC(=O)N(CCC#N)C1CCCCC1)c1ccccc1` (stereo not shown) [CBK156382]: the viability at 28.5 h, 10 µM turned out to be 97.2%. Regarding `Clc1nc2ccccc2nc1OCCOc1ccccc1` [CBK113367], the viability at 28.5 h, 10 µM stood at 108%.

For `CCCCC(=O)NC(Nc1cc(C)ccn1)(C(F)(F)F)C(F)(F)F` [CBK009331], the viability at 28.5 h, 10 µM came out at 79.6%. `O=S(=O)(Nc1ccc2[nH]ccc2c1)c1c(Cl)cc(C(F)(F)F)cc1Cl` [CBK156328]: the viability at 28.5 h, 10 µM was 75.5%. In the case of `Cc1cc(C)c2c(c1)cc(C)c1nn(CC(=O)NC3CC3)c(=O)n12` [CBK283877], the viability at 28.5 h, 10 µM worked out at 83.5%.

Consider `CCC(C)(NC(=O)c1ccn(-c2cc(C)ccc2OC)n1)C(=O)OC` (stereo not shown) [CBK305282], for which the viability at 28.5 h, 10 µM turned out to be 78.7%.

As for `CCOc1ccccc1-c1nnc(SCC(=O)NC2CCCCC2)o1` [CBK268728], the viability at 28.5 h, 10 µM was determined as 106%. With `Cc1ccccc1CN1CCN(CC(=O)Nc2ccccc2C(N)=O)CC1` [CBK270296] the figure was 94.1%.

`Cn1c(Cc2cccc3ccccc23)nnc1SCC(=O)Nc1ccccc1F` [CBK265856]: the viability at 28.5 h, 10 µM was determined as 85%. In the case of `CC(C)(C)OC(=O)N1CCCC2(CCCN(C(=O)c3ccco3)C2)C1` (stereo not shown) [CBK284463] it was 94.7%; in that of `CCCc1ccc(-c2nccn2CCn2cc(C)nn2)o1` [CBK307688], 101%. With `CCOC(=O)c1cc(C)sc1NC(=O)CCC(=O)O` [CBK265412] the figure was 108%; with `CC(C)NC(=O)c1ccc(Cl)cc1` [CBK015665], 101%; with `CC(=O)c1ccc(S(=O)(=O)N2CCCCC2CNC(=O)c2ccco2)cc1` (stereo not shown) [CBK051472], 103%. In the case of `CCc1ccc(C(O)CNC2CCN(C3CCCCC3)CC2)cc1` (stereo not shown) [CBK304604], the viability at 28.5 h, 10 µM is 88.2%. For `CC(=O)Nc1ccccc1-c1nc2ccccc2o1` [CBK287568], the viability at 28.5 h, 10 µM turned out to be 100%. As to `COc1ccc(-c2nc(C3CCN(C(=O)NC(C)(C)C)CC3)n3ccccc23)cc1` [CBK047080], the viability at 28.5 h, 10 µM came to 97.4%.

As to `O=C(C1CCN(S(=O)(=O)c2ccc(F)cc2)C1)N1CCN(C2CCCC2)CC1` (stereo not shown) [CBK285703], the viability at 28.5 h, 10 µM stood at 96.6%. For the molecule `Oc1ccc2ccccc2c1Cc1c(O)ccc2ccccc12` [CBK263583], the viability at 28.5 h, 10 µM came to 72.9%. `CCC(CN1CCCC1)NC(=O)Cc1ccc(OC)c(C)c1` (stereo not shown) [CBK282752]: the viability at 28.5 h, 10 µM is 92.9%. With `COc1ccc(C(C)C)cc1-c1cnc(N)c(NC2CCCCC2)n1` [CBK063618] the figure was 108%; with `CC1CCC(C(N)=O)CN1c1cc(Br)ccn1` (stereo not shown) [CBK304856], 94.9%; with `Cc1ccc(F)c(OC2(C(=O)O)CCN(Cc3cccc(C)n3)CC2)c1` [CBK306541], 98.8%. Consider `CCC(C)(C)c1ccc(S(=O)(=O)N2CCN(Cc3cc(C(=O)OC)n(C)c3)CC2)cc1` [CBK062831], for which the viability at 28.5 h, 10 µM came out at 96.3%.

Consider `O=C(O)c1ccc(-c2ccc(/C=C/c3[nH]c(=O)[nH]c(=O)c3[N+](=O)[O-])o2)cc1` [CBK268055], for which the viability at 28.5 h, 10 µM was 105%. Consider `FC(F)(F)c1cccc(-c2cn(-c3ccsc3)nn2)c1` [CBK112937], for which the viability at 28.5 h, 10 µM is 88.5%. On to `COCc1ccc(C(=O)N2CCN3C(=O)CCC32C)o1` (stereo not shown) [CBK282091], for which the viability at 28.5 h, 10 µM was found to be 104%. As for `O=C(Cc1c[nH]c2ccccc12)N1CCC2(CCN(C(=O)c3cccnc3)C2)C1` (stereo not shown) [CBK131453], the viability at 28.5 h, 10 µM stood at 80.6%. In the case of `O=C(CCc1cccnc1)N1CCCCC1c1nc2cc(F)ccc2[nH]1` (stereo not shown) [CBK291106], the viability at 28.5 h, 10 µM stood at 112%. Regarding `CCCC/C=C/c1cncc(N(C)CCN(C)C)n1` [CBK065374], the viability at 28.5 h, 10 µM is 91.1%. With `COc1ccccc1N1C(=O)[C@H]2N=C(C(=O)c3cnccn3)N[C@H]2C1=O` [CBK021406], the viability at 28.5 h, 10 µM came out at 90.3%. On to `O=C(NCCCc1ccc(F)cc1)c1cccc(N2CCCC2=O)c1` [CBK282684], for which the viability at 28.5 h, 10 µM came to 88.6%. With `Cn1ncc2c(NCCCC3CCOC3)nc(C(C)(C)C)nc21` (stereo not shown) [CBK307363] the figure was 113%; with `CCOC(=O)C1CCN(Cc2c(O)c3ccccc3oc2=O)CC1` [CBK266035], 70.6%; with `Cc1csc2c(C3CCCN(C(=O)c4cc[nH]n4)C3)nc(C)n12` (stereo not shown) [CBK285238], 88.1%. For the molecule `Cc1cc(CNS(=O)(=O)c2cccc3nonc23)no1` [CBK062263], the viability at 28.5 h, 10 µM was determined as 106%. As to `CCc1nc2ccc(C(=O)Nc3ccc(Cl)c(Cl)c3)cn2c1N(C)Cc1ccc(OC)cc1` [CBK145585], the viability at 28.5 h, 10 µM was 93.6%. Regarding `Cc1nc[nH]c1CN1CCCN(S(=O)(=O)c2ccc(C(F)(F)F)cc2Cl)CC1` [CBK063035], the viability at 28.5 h, 10 µM stood at 112%. Regarding `CC(C)(C)NC(=O)COc1ccc(CNCc2ccccn2)cc1` [CBK268420C], the viability at 28.5 h, 10 µM amounted to 95.5%. In the case of `CCNc1cc(-c2ccc(Cl)cc2)ncn1` [CBK090880], the viability at 28.5 h, 10 µM amounted to 99%. Regarding `COc1ccc(F)c(CN2CC3CCCN3C[C@@H]2C)c1` (stereo partly shown) [CBK284549], the viability at 28.5 h, 10 µM was found to be 86.9%. Turning to `CC(C(=O)N1CCC(O)(c2ccccn2)CC1)c1ccccc1` (stereo not shown) [CBK282396], the viability at 28.5 h, 10 µM was 102%.

For `CCCC(=O)N1CCCC([C@@H]2C[C@H](C(F)F)n3nc(C)cc3N2)C1` (stereo partly shown) [CBK284721], the viability at 28.5 h, 10 µM is 93.2%. In the case of `CC(C)(CN)CN(Cc1ccncc1)C(=O)Nc1ccc(C(C)(C)C)cc1` [CBK002459C], the viability at 28.5 h, 10 µM was determined as 82%. In the case of `CCOc1ccc(NC(=O)C2C3c4ccccc4C(c4ccccc43)C2C(=O)O)cc1` (stereo not shown) [CBK261544] it was 102%; in that of `Cc1cc(OCC(C)C)ccc1C(=O)C1=C(O)C(=O)N(Cc2cccnc2)C1c1cccnc1` (stereo not shown) [CBK264883], 97.6%; in that of `COC(=O)c1ccc(SCc2nc(N3CCOCC3)c3c(c2C#N)CC(C)(C)OC3)o1` [CBK019077], 114%. `COc1ccc(C(=O)Nn2c(SCC(=O)c3ccc(F)cc3)nc3ccccc3c2=O)cc1` [CBK266688]: the viability at 28.5 h, 10 µM worked out at 99.7%. In the case of `O=C1Cc2cc3ccccc3cc2C2(CCN(CCC(F)=C(F)F)CC2)N1` [CBK040033], the viability at 28.5 h, 10 µM was 94.6%. `Cc1cc(CN2CC3CCCN3C[C@@H]2C)c(C)n1CC1CCCO1` (stereo partly shown) [CBK285419]: the viability at 28.5 h, 10 µM worked out at 82%. Turning to `CN1CCN(N/C=C2/C(=O)N(c3ccc([N+](=O)[O-])cc3)N=C2c2ccccc2)CC1` [CBK262763], the viability at 28.5 h, 10 µM came out at 89.6%.
